This note sets out measurements from paper PMC7261929, “A New Family of Jumonji C Domain-Containing KDM Inhibitors Inspired by Natural Product Purpurogallin” (Frontiers in Chemistry, 2020).

What is called inhibition is the percentage by which the read-out fell short of the control. Broadly, the IC50 is the concentration that gives 50% inhibition. Higher therefore signals weaker potency.

The structures appear in SMILES notation.

Common to all, as to format: biochemical
For test [1], the target named is T1, KDM4A (Homo sapiens, UniProt O75164).
T1 sequence (O75164 2-1064): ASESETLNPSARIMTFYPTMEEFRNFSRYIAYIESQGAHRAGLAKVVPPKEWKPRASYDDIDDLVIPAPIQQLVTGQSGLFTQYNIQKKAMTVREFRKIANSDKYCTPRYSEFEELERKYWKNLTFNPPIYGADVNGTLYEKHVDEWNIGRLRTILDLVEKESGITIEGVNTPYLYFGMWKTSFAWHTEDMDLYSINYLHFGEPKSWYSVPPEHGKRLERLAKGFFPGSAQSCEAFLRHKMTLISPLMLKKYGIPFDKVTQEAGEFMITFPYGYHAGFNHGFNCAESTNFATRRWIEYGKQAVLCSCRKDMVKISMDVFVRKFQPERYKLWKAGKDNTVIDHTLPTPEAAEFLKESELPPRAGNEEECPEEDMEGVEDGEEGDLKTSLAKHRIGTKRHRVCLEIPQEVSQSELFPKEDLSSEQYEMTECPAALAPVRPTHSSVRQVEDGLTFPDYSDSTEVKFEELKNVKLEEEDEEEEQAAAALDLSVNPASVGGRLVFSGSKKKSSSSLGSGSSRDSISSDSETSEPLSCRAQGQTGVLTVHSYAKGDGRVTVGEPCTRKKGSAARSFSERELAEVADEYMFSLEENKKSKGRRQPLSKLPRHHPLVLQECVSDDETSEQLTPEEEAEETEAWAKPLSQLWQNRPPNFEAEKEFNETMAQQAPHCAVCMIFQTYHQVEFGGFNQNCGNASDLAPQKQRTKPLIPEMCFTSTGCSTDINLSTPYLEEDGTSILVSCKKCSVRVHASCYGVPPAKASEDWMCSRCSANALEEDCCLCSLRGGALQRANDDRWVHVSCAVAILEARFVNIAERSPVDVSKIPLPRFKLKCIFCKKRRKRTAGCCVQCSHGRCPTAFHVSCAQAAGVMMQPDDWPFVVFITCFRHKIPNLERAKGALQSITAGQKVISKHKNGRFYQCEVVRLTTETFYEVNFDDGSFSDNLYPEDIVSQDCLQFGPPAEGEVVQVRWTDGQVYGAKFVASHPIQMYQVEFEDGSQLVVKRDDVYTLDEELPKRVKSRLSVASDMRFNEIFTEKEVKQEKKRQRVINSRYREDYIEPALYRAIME
Briefly: KDM4A enzymatic screening assay and fluorescence assay at […].

For test [2], the target named is T1, KDM4A. Nature of the test: fluorescence demethylase enzymatic assay, single dose […].
The next test concerns the target T2, KDM4D (Homo sapiens, UniProt Q6B0I6).
T2 construct: KDM4D-GST recombinant enzyme
T2 sequence (Q6B0I6 1-523): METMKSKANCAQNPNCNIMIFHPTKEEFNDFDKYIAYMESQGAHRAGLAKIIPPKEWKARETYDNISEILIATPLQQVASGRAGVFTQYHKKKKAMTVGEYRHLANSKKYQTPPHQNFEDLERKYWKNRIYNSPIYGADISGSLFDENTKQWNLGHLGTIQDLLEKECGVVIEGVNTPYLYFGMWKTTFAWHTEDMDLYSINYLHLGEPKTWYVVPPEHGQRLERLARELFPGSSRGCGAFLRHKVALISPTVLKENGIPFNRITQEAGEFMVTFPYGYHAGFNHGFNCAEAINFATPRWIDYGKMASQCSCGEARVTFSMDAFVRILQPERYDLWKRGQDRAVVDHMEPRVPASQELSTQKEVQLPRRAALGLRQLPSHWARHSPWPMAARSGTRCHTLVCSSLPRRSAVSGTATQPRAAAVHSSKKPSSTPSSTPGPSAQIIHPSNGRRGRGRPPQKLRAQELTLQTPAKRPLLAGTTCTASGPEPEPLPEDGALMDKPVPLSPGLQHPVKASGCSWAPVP
Briefly: fluorescence demethylase enzymatic assay, dose curve.

The target in another test is T3, KDM4C (Homo sapiens, UniProt Q9H3R0).
T3 construct: KDM4C-GST recombinant enzyme
T3 sequence (Q9H3R0 1-1056): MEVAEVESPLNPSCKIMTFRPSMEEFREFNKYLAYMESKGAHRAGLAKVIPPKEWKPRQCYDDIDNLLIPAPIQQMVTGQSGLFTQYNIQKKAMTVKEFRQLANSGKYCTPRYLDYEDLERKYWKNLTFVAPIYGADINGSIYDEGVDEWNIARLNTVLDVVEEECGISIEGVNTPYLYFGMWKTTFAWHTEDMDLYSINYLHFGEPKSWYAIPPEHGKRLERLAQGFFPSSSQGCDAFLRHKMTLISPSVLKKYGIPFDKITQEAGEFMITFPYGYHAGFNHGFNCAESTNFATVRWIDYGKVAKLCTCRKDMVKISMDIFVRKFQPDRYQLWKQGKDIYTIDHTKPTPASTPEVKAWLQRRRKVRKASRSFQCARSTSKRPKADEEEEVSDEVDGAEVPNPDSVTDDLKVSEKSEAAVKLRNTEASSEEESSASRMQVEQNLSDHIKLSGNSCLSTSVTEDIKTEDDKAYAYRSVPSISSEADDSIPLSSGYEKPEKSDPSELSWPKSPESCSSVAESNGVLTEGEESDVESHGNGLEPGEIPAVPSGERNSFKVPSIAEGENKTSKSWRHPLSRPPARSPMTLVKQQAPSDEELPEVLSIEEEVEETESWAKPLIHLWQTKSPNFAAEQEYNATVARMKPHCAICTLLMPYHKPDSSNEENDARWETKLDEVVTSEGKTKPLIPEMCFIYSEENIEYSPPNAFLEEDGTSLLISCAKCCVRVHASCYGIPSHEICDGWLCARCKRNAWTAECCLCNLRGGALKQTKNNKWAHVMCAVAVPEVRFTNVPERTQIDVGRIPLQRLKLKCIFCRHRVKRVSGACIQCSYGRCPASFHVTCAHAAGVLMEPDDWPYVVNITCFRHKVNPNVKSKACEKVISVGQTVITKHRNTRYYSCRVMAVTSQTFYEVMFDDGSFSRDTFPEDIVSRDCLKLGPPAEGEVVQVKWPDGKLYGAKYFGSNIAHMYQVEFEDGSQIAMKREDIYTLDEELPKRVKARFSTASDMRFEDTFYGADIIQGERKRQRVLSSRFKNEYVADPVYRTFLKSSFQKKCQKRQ
The test is described as above.

Another test has as its target T4, KDM4B (Homo sapiens, UniProt O94953).
T4 construct: KDM4B-GST recombinant enzyme
T4 sequence (O94953 1-1096): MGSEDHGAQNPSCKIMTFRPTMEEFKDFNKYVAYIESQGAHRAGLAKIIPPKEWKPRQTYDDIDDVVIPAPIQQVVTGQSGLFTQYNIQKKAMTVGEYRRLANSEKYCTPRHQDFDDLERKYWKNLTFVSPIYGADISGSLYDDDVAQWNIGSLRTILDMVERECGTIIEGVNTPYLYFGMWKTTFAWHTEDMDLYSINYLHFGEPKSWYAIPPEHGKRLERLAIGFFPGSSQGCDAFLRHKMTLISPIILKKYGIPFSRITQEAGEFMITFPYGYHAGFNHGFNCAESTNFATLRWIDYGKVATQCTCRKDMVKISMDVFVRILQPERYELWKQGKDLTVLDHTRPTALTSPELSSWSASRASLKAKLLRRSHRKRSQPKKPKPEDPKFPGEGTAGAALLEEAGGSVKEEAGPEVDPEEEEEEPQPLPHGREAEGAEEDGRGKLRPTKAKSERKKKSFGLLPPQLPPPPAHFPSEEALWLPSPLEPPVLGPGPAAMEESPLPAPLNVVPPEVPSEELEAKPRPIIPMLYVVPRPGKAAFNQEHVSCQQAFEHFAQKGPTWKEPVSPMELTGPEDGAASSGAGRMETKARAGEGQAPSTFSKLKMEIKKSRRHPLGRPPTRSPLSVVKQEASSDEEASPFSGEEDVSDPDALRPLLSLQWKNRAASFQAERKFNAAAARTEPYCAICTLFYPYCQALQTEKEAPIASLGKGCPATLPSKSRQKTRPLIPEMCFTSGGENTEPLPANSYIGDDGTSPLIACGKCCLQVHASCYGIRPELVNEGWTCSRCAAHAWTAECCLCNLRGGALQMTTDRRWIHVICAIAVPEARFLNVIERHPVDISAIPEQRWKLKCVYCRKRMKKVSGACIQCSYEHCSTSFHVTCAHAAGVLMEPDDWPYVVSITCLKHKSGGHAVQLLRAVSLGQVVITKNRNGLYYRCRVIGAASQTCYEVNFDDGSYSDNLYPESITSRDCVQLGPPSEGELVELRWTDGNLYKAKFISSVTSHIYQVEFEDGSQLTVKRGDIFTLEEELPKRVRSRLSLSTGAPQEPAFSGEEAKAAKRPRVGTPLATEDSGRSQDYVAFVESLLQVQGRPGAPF
The description is as above.

The target of test [3] is T1, KDM4A. Briefly: AlphaLISA JMJD2A homogeneous demethylase assay, […] concentrations (fluorescence assay gave IC50 […]). A general note: Alpha assays give light when donor and acceptor beads are brought close together.

`O=c1c(O)cccc2cc(O)c(O)c(O)c12` [9aa, 2,3,4,6-tetrahydroxy-5H-benzo[7]annulen-5-one]: on KDM4A [1], the “KDM4A enzymatic screening assay and fluorescence assay at 50 μM” value is “Purpurogallin 9aa”.
Turning to `O=c1c(O)cccc2c(Br)cc(O)c(O)c12` [9ac, 1-bromo-3,4,6-trihydroxy-5H-benzo[7]annulen-5-one], 50 µM produced 50% inhibition against KDM4A [2].
`O=C(O)c1cc(O)c(=O)c2c(O)c(O)cc(Br)c2c1` [9bc, 1-bromo-3,4,6-trihydroxy-5-oxo-5H-benzo[7]annulene-8-carboxylic acid]: 50 µM produced 80% inhibition against KDM4A [2].
Regarding `O=C(O)c1cc(O)c(=O)c2c(O)c(O)cc(-c3ccccc3)c2c1` [9bf, 3,4,6-trihydroxy-5-oxo-1-phenyl-5H-benzo[7]annulene-8-carboxylic acid], the IC50 against KDM4D stood at 28.5 µM; at KDM4C, 38.9 µM; against KDM4B, 35.9 µM; against KDM4A [3], 10.1 µM.
